# Data from patent US20130040882A1, “USE OF FIBROBLAST GROWTH FACTOR FRAGMENTS” (NOVARTIS AG, priority 2003, published 2013).
# Test system: uterine gene expression
# Assay: Gene expression profiling (HGU133A) in the uterus of ovariectomized monkeys treated with estradiol, tamoxifen or raloxifene
# Type: in vivo, cynomolgus monkeys (Macaca fascicularis)
# Conditions: uterus, OVX monkeys
smiles,measurement,setting,value
O=C(c1ccc(OCCN2CCCCC2)cc1)c1c(-c2ccc(O)cc2)sc2cc(O)ccc12 [raloxifene],Fold change relative to SHAM control: Fibulin 1,,0.8 fold
same,Fold change relative to SHAM control: G1 to S phase transition 1,,0.7 fold
same,Fold change relative to SHAM control: Growth associated protein 43,,0.7 fold
same,"Fold change relative to SHAM control: H2A histone family, member Y",,0.8 fold
same,Fold change relative to SHAM control: Heparan sulfate proteoglycan 2 (perlecan),,0.6 fold
same,Fold change relative to SHAM control: Histone H2A.F/Z variant,,1.0 fold
same,"Fold change relative to SHAM control: Insulin-like growth factor binding protein 2, 36 kda",,0.7 fold
same,Fold change relative to SHAM control: Insulin-like growth factor binding protein 5,,1.1 fold
same,"Fold change relative to SHAM control: Intercrine-alpha, mrna sequence",,0.8 fold
same,"Fold change relative to SHAM control: Laminin, beta 1",,0.8 fold
same,Fold change relative to SHAM control: Latent transforming growth factor beta binding protein 1,,0.8 fold
same,Fold change relative to SHAM control: Matrix metalloproteinase 19,,0.2 fold
same,Fold change relative to SHAM control: Nidogen (enactin),,1.7 fold
same,"Fold change relative to SHAM control: Osteoglycin (osteoinductive factor, mimecan)",,0.7 fold
same,Fold change relative to SHAM control: Peroxiredoxin 1,,0.8 fold
same,Fold change relative to SHAM control: Pituitary tumour-transforming 1 interacting protein,,0.7 fold
same,Fold change relative to SHAM control: Procollagen C-endopeptidase enhancer,,0.8 fold
same,"Fold change relative to SHAM control: Procollagen-proline, 2-oxoglutarate 4-dioxygenase (proline 4-hydroxylase), alpha polypeptide II",,0.8 fold
same,"Fold change relative to SHAM control: SET domain, bifurcated 1",,0.8 fold
same,"Fold change relative to SHAM control: SPARC-like 1 (mast9, hevin)",,1.1 fold
same,"Fold change relative to SHAM control: Secreted protein, acidic, cysteine-rich (osteonectin)",,0.8 fold
same,"Fold change relative to SHAM control: Serine (or cysteine) proteinase inhibitor, clade H (heat shock protein 47), member 1, (collagen binding protein 1)",,0.7 fold
same,"Fold change relative to SHAM control: Solute carrier family 22 (organic cation transporter), member 1-like",,0.8 fold
same,"Fold change relative to SHAM control: Solute carrier family 25 (mitochondrial carrier; adenine nucleotide translocator), member 5",,0.8 fold
same,Fold change relative to SHAM control: Stem cell growth factor; lymphocyte secreted C-type lectin,,0.7 fold
same,Fold change relative to SHAM control: Tenascin C (hexabrachion),,0.8 fold
same,Fold change relative to SHAM control: Testis Enhanced Gene Transcript (Bax Inhibitor 1),,1.1 fold
same,Fold change relative to SHAM control: Thioredoxin interacting protein,,1.7 fold
same,"Fold change relative to SHAM control: Transforming growth factor, beta-induced, 68 kda",,0.8 fold
same,"Fold change relative to SHAM control: Ubiquinol-cytochrome c reductase, Rieske iron-sulfur polypeptide 1",,0.8 fold
same,Fold change relative to OVX: Insulin receptor,Table 46,0.9 fold
same,Fold change relative to OVX: Insulin receptor,Table 51,0.9 fold
same,Fold change relative to SHAM control: Insulin receptor,Table 51,1.4 fold
same,Fold change relative to OVX: Fibronectin 1,entry with OVX average 39,2.3 fold
same,Fold change relative to OVX: Bone morphogenetic protein 1,entry with OVX average 79,1.2 fold
same,Fold change relative to OVX: Bone morphogenetic protein 1,entry with OVX average 93,1.4 fold
same,Fold change relative to OVX: Insulin-like growth factor 1 (somatomedin C),entry with OVX average 102,1.5 fold
same,Fold change relative to OVX: Fibrillin 1 (Marfan syndrome),entry with OVX average 124,2.1 fold
same,"Fold change relative to OVX: Collagen, type I, alpha 2",entry with OVX average 154,3.2 fold
same,Fold change relative to OVX: Insulin-like growth factor 1 (somatomedin C),entry with OVX average 156,2.2 fold
same,"Fold change relative to OVX: Solute carrier family 2 (facilitated glucose/fructose transporter), member 5",entry with OVX average 171,1.2 fold
same,"Fold change relative to OVX: Solute carrier family 2 (facilitated glucose/fructose transporter), member 5",entry with OVX average 176,1.0 fold
same,"Fold change relative to OVX: Collagen, type IV, alpha 1",entry with OVX average 182,1.8 fold
same,"Fold change relative to OVX: Cyclin-dependent kinase inhibitor 1C (p57, Kip2)",entry with OVX average 224,0.9 fold
same,Fold change relative to OVX: Insulin-like growth factor 1 (somatomedin C),entry with OVX average 310,2.3 fold
same,Fold change relative to OVX: Fibronectin 1,entry with OVX average 419,2.2 fold
same,"Fold change relative to OVX: Cyclin-dependent kinase inhibitor 1C (p57, Kip2)",entry with OVX average 527,1.2 fold
same,Fold change relative to OVX: Fibronectin 1,entry with OVX average 586,2.2 fold
same,Fold change relative to OVX: Fibronectin 1,entry with OVX average 648,1.7 fold
same,"Fold change relative to OVX: Collagen, type IV, alpha 1",entry with OVX average 690,1.2 fold
same,Fold change relative to OVX: Fibronectin 1,entry with OVX average 757,1.9 fold
same,"Fold change relative to OVX: Cyclin-dependent kinase inhibitor 1C (p57, Kip2)",entry with OVX average 762,1.1 fold
same,"Fold change relative to OVX: ATP synthase, H+ transporting, mitochondrial F0 complex, subunit c (subunit 9) isoform 3",entry with OVX average 811,1.2 fold
same,Fold change relative to OVX: Fibrillin 1 (Marfan syndrome),entry with OVX average 874,1.5 fold
same,"Fold change relative to OVX: ATP synthase, H+ transporting, mitochondrial F0 complex, subunit c (subunit 9) isoform 3",entry with OVX average 1007,1.2 fold
same,"Fold change relative to OVX: Collagen, type III, alpha 1 (Ehlers-Danlos syndrome type IV, autosomal dominant)",entry with OVX average 1084,1.9 fold
same,"Fold change relative to OVX: Collagen, type I, alpha 2",entry with OVX average 2757,2.2 fold
same,"Fold change relative to OVX: Collagen, type III, alpha 1 (Ehlers-Danlos syndrome type IV, autosomal dominant)",entry with OVX average 3445,2.0 fold
same,"Fold change relative to OVX: H3 histone, family 3A",entry with OVX average 9495,0.9 fold
same,"Fold change relative to OVX: H3 histone, family 3A",entry with OVX average 9692,1.0 fold
same,Fold change relative to SHAM control: Fibronectin 1,entry with SHAM average 100,0.9 fold
same,Fold change relative to SHAM control: Bone morphogenetic protein 1,entry with SHAM average 143,0.7 fold
same,"Fold change relative to SHAM control: Cyclin-dependent kinase inhibitor 1C (p57, Kip2)",entry with SHAM average 201,1.0 fold
same,Fold change relative to SHAM control: Bone morphogenetic protein 1,entry with SHAM average 205,0.6 fold
same,Fold change relative to SHAM control: Insulin-like growth factor 1 (somatomedin C),entry with SHAM average 226,0.7 fold
same,Fold change relative to SHAM control: Fibrillin 1 (Marfan syndrome),entry with SHAM average 236,1.1 fold
same,"Fold change relative to SHAM control: Solute carrier family 2 (facilitated glucose/fructose transporter), member 5",entry with SHAM average 291,0.6 fold
same,"Fold change relative to SHAM control: Solute carrier family 2 (facilitated glucose/fructose transporter), member 5",entry with SHAM average 317,0.7 fold
same,Fold change relative to SHAM control: Insulin-like growth factor 1 (somatomedin C),entry with SHAM average 417,0.8 fold
same,"Fold change relative to SHAM control: Collagen, type IV, alpha 1",entry with SHAM average 436,0.7 fold
same,"Fold change relative to SHAM control: Cyclin-dependent kinase inhibitor 1C (p57, Kip2)",entry with SHAM average 459,1.4 fold
same,"Fold change relative to SHAM control: Collagen, type I, alpha 2",entry with SHAM average 493,1.0 fold
same,Fold change relative to SHAM control: Insulin-like growth factor 1 (somatomedin C),entry with SHAM average 581,1.2 fold
same,"Fold change relative to SHAM control: Cyclin-dependent kinase inhibitor 1C (p57, Kip2)",entry with SHAM average 660,1.3 fold
same,Fold change relative to SHAM control: Fibronectin 1,entry with SHAM average 920,1.0 fold
same,"Fold change relative to SHAM control: ATP synthase, H+ transporting, mitochondrial F0 complex, subunit c (subunit 9) isoform 3",entry with SHAM average 1045,0.9 fold
same,Fold change relative to SHAM control: Fibronectin 1,entry with SHAM average 1089,1.2 fold
same,"Fold change relative to SHAM control: Collagen, type IV, alpha 1",entry with SHAM average 1143,0.7 fold
same,Fold change relative to SHAM control: Fibronectin 1,entry with SHAM average 1288,0.9 fold
same,Fold change relative to SHAM control: Fibronectin 1,entry with SHAM average 1301,1.1 fold
same,"Fold change relative to SHAM control: ATP synthase, H+ transporting, mitochondrial F0 complex, subunit c (subunit 9) isoform 3",entry with SHAM average 1355,0.9 fold
same,Fold change relative to SHAM control: Fibrillin 1 (Marfan syndrome),entry with SHAM average 1388,1.0 fold
same,"Fold change relative to SHAM control: Collagen, type III, alpha 1 (Ehlers-Danlos syndrome type IV, autosomal dominant)",entry with SHAM average 2992,0.7 fold
same,"Fold change relative to SHAM control: Collagen, type III, alpha 1 (Ehlers-Danlos syndrome type IV, autosomal dominant)",entry with SHAM average 7354,1.0 fold
same,"Fold change relative to SHAM control: Collagen, type I, alpha 2",entry with SHAM average 7758,0.8 fold
same,"Fold change relative to SHAM control: H3 histone, family 3A",entry with SHAM average 9408,0.9 fold
same,"Fold change relative to SHAM control: H3 histone, family 3A",entry with SHAM average 10239,1.0 fold
